Like-named read-outs stand apart in the source and are kept apart here. A value given as a limit tells only on which side of the number the result lay.

The source of these data is patent US9249154B2, “Compounds and therapeutic use thereof for protein kinase inhibition” (priority 2008, dated 2016).

The subject of assay [1] is transplanted human colon cancer HT-99. The experiment in a line: Effects on HT99 transplanted nude mice. Type of assay: in vivo. The conditions noted are these: 60 mg/kg ip, d0, 1; for RTV (relative tumor volume) / TV dn: X ± SD; for TV dn: dn = 17 days after drug treatment.
The subject of a further assay is Mouse Lung Cancer (3LL). Nature of the assay: In vitro anti-cancer cell activity (cellular toxicity, SRB and MTT methods, 72 hours). Type of assay: cell-based. As to conditions: read-out: In vitro anti-cancer cell activities IC50, Mouse Lung Cancer (3LL). (Formazan colour is commonly taken as a measure of viable cells.)
The next assay deals with Human colon cancer HT-29. Described as above. Type of assay: cell-based. The conditions noted are these: read-out: In vitro anti-cancer cell activities IC50, Human colon cancer HT-29.
Assay [2] has as its system Human Ovarian cancer (A2780). Described as above. It is filed as cell-based. The conditions noted are these: read-out: In vitro anti-cancer cell activities IC50, Human Ovarian cancer (A2780).
In assay [3] the test system is Human Gastric Cancer (BGC-823). The assay is described as above. As to conditions: read-out: In vitro anti-cancer cell activities IC50, Human Gastric Cancer (BGC-823). Type of assay: cell-based.

As usually defined, the T/C is the ratio of treated to control. The IC50 is the concentration that gives 50% inhibition. For “2-(4-chlorophenyl)-4-(3-α-thiapyranmethy)-thieno[2,3-d]pyridazine-7-carboxylic acid amide [Compound 11]”, in assay [1], the T/C is 113.4%. Moreover, in assay [1], the “RTV (relative tumor volume)” value is reported as 7.52 ± 0.26. Moreover, the TV dn in assay [1] amounted to 1224 ± 440 mm^3. Moreover, the IC50 was 8.43 µM in the assay with Mouse Lung Cancer (3LL), 10.7 µM in the assay on Human colon cancer HT-29, 11.8 µM in assay [2] and 9.24 µM in assay [3].
For `NC(=O)c1nnc(CC2CCNCC2)c2cc(-c3ccc(Cl)cc3)sc12` [Compound 5, 2-(4-chlorophenyl)-4-(4-piperidinemethy)-thieno[2,3-d]pyridazine-7-carboxylic acid amide], in assay [1], the T/C stood at 96.5%, the “RTV (relative tumor volume)” value is 6.40 ± 0 and the TV dn was determined as 910 ± 0 mm^3.
For the compound `NC(=O)c1nnc(Cc2ccncc2)c2cc(-c3ccc(Cl)cc3)sc12` [Compound 13, 2-(4-chlorophenyl)-4-(4-pyridinemethy)-thieno[2,3-d]pyridazine-7-carboxylic acid amide], the IC50 in the assay on Mouse Lung Cancer (3LL) turned out to be 1.24 µM; in the assay on Human colon cancer HT-29, 0.73 µM; in assay [2], 1.18 µM; in assay [3] it was 2.62 µM.
For the compound `NC(=O)c1nnc(Cc2cc[nH]c2)c2cc(-c3ccc(Cl)cc3)sc12` [Compound 14, 2-(4-chlorophenyl)-4-(3-pyrrolemethy)-thieno[2,3-d]pyridazine-7-carboxylic acid amide], the IC50 in the assay on Mouse Lung Cancer (3LL) was 8.59 µM; in the assay with Human colon cancer HT-29, 16.8 µM; in assay [2], 6.01 µM; in assay [3], 30.5 µM.
`NC(=O)c1nnc(Cc2ccoc2)c2cc(-c3ccc(Cl)cc3)sc12` [Compound 15, 2-(4-chlorophenyl)-4-(3-furanmethy)-thieno[2,3-d]pyridazine-7-carboxylic acid amide]: the IC50 in assay [3] was 2.25 µM.
Consider `CN(C)C(=O)c1nnc(CC2CCCOC2)c2cc(-c3ccc(Cl)cc3)sc12` (centres unmarked) [Compound 19], for which, in assay [1], the T/C is on record as 68.3%, the “RTV (relative tumor volume)” value is 4.53 ± 0.82 and the TV dn is given as 663 ± 86 mm^3.
In the case of `NC(=O)c1nnc(CC2CCNC2)c2cc(-c3ccc(Br)cc3)sc12` (centres unmarked) [Compound 22], in assay [1], the T/C was determined as 70.7%, the “RTV (relative tumor volume)” value was determined as 4.69 ± 0.71 and the TV dn is 714 ± 127 mm^3.
Regarding `NC(=O)c1nnc(CC2CCOC2)c2cc(-c3ccc(F)cc3)sc12` (centres unmarked) [Compound 23], in the assay on Mouse Lung Cancer (3LL) (Mus musculus), the IC50 was > 100 µM.
As to `NC(=O)c1nnc(CC2CCOC2)c2cc(-c3ccc(Cl)cc3)sc12` (centres unmarked) [Compound 24], the IC50 in the assay on Mouse Lung Cancer (3LL) (Mus musculus) was > 100 µM; in the assay with Human colon cancer HT-29 (Homo sapiens) it was > 100 µM; in assay [2] (Homo sapiens), > 100 µM; in assay [3] (Homo sapiens), 24.6 µM.
Regarding `NC(=O)c1nnc(CC2CCNC2)c2cc(-c3ccc(Cl)cc3)sc12` (centres unmarked) [Compound 30], in assay [1], the T/C amounted to 57.0%, the “RTV (relative tumor volume)” value was found to be 3.78 ± 1.09 and the TV dn stood at 482 ± 83 mm^3.
In the same order, the values of `NC(=O)c1nnc(CC2CCNC2)c2cc(-c3ccc(Cl)cc3)sc12` (centres unmarked) [Compound 31] are 80.8%, 5.36 ± 1.94 and 785 ± 300 mm^3.
Take `NC(=O)c1nnc(Cc2cccnc2)c2cc(-c3ccc(F)cc3)sc12` [Compound 38]: the IC50 in the assay with Mouse Lung Cancer (3LL) (Mus musculus) worked out at 3.13 µM.
Same read-out and setting: the figure for `CN(C)C(=O)c1nnc(Cc2ccoc2)c2cc(-c3ccc(Cl)cc3)sc12` [Compound 70] is > 100 µM.
